Results reported in PMC7522982, “PKIS deep dive yields a chemical starting point for dark kinases and a cell active BRSK2 inhibitor” (Scientific Reports, 2020).

Key:
[1] = target: T1, RPS6KA3/RSK2 (Homo sapiens, UniProt P51812); assay: Eurofins kinase enzymatic radiometric assay; type: biochemical; conditions: Km of ATP, 9-point curve in duplicate
T1 construct: purchased Eurofins
Excerpt: (§1) Due to our interest in the activity of GW296115 on several understudied IDG kinases, we collected full dose–response curves for all wild type kinases inhibited ≥ 75% in the DiscoverX panel that were offered by Eurofins. Having data in orthogonal formats is a powerful way to confirm inhibitory activity and adds rigor to our results. Eurofins has kinase enzymatic radiometric assays for 35 of the kinases on this list (Table S2) and a kinase enzymatic LANCE assay for one additional kinase (MAP2K5/MEK5).
(§2) Eurofins kinase enzymatic radiometric assays were carried out at the Km of ATP in dose–response (9-pt curve in duplicate) for each kinase for which it was offered.

[2] = test system: PRKAA2; set-up: method as in earlier work; conditions: cited from earlier work
[3] = target: STK33 (Homo sapiens, UniProt Q9BYT3); assay: Eurofins kinase enzymatic radiometric assay; type: biochemical; set-up: purchased Eurofins; conditions: Km of ATP, 9-point curve in duplicate
Excerpt: as §1, §2

[4] = target: DAPK1 (Homo sapiens, UniProt P53355); assay: Eurofins kinase enzymatic radiometric assay; type: biochemical; set-up: purchased Eurofins; conditions: Km of ATP, 9-point curve in duplicate
Excerpt: as §1, §2

[5] = target: ROS1 (Homo sapiens, UniProt P08922); assay: Eurofins kinase enzymatic radiometric assay; type: biochemical; set-up: purchased Eurofins; conditions: Km of ATP, 9-point curve in duplicate
Excerpt: as §1, §2

[6] = target: DAPK3/ZIPK (Homo sapiens, UniProt O43293); assay: Eurofins kinase enzymatic radiometric assay; type: biochemical; set-up: purchased Eurofins; conditions: Km of ATP, 9-point curve in duplicate
DAPK3/ZIPK, sequence (O43293 whole entry): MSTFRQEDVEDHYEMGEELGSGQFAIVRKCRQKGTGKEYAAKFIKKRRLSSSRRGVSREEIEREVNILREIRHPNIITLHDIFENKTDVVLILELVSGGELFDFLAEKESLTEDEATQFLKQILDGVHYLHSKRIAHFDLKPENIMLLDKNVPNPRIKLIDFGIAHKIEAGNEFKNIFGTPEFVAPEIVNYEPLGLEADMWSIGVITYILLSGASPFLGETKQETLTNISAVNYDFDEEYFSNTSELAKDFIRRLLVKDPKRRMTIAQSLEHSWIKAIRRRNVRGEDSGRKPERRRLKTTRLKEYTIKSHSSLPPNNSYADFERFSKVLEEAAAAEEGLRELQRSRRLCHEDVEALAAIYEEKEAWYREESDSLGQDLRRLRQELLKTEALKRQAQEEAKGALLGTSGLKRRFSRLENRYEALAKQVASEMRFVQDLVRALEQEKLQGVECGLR
Excerpt: as §1, §2

[7] = target: LRRK2 (Homo sapiens, UniProt Q5S007); assay: Eurofins kinase enzymatic radiometric assay; type: biochemical; set-up: purchased Eurofins; conditions: Km of ATP, 9-point curve in duplicate
LRRK2, sequence (Q5S007 whole entry): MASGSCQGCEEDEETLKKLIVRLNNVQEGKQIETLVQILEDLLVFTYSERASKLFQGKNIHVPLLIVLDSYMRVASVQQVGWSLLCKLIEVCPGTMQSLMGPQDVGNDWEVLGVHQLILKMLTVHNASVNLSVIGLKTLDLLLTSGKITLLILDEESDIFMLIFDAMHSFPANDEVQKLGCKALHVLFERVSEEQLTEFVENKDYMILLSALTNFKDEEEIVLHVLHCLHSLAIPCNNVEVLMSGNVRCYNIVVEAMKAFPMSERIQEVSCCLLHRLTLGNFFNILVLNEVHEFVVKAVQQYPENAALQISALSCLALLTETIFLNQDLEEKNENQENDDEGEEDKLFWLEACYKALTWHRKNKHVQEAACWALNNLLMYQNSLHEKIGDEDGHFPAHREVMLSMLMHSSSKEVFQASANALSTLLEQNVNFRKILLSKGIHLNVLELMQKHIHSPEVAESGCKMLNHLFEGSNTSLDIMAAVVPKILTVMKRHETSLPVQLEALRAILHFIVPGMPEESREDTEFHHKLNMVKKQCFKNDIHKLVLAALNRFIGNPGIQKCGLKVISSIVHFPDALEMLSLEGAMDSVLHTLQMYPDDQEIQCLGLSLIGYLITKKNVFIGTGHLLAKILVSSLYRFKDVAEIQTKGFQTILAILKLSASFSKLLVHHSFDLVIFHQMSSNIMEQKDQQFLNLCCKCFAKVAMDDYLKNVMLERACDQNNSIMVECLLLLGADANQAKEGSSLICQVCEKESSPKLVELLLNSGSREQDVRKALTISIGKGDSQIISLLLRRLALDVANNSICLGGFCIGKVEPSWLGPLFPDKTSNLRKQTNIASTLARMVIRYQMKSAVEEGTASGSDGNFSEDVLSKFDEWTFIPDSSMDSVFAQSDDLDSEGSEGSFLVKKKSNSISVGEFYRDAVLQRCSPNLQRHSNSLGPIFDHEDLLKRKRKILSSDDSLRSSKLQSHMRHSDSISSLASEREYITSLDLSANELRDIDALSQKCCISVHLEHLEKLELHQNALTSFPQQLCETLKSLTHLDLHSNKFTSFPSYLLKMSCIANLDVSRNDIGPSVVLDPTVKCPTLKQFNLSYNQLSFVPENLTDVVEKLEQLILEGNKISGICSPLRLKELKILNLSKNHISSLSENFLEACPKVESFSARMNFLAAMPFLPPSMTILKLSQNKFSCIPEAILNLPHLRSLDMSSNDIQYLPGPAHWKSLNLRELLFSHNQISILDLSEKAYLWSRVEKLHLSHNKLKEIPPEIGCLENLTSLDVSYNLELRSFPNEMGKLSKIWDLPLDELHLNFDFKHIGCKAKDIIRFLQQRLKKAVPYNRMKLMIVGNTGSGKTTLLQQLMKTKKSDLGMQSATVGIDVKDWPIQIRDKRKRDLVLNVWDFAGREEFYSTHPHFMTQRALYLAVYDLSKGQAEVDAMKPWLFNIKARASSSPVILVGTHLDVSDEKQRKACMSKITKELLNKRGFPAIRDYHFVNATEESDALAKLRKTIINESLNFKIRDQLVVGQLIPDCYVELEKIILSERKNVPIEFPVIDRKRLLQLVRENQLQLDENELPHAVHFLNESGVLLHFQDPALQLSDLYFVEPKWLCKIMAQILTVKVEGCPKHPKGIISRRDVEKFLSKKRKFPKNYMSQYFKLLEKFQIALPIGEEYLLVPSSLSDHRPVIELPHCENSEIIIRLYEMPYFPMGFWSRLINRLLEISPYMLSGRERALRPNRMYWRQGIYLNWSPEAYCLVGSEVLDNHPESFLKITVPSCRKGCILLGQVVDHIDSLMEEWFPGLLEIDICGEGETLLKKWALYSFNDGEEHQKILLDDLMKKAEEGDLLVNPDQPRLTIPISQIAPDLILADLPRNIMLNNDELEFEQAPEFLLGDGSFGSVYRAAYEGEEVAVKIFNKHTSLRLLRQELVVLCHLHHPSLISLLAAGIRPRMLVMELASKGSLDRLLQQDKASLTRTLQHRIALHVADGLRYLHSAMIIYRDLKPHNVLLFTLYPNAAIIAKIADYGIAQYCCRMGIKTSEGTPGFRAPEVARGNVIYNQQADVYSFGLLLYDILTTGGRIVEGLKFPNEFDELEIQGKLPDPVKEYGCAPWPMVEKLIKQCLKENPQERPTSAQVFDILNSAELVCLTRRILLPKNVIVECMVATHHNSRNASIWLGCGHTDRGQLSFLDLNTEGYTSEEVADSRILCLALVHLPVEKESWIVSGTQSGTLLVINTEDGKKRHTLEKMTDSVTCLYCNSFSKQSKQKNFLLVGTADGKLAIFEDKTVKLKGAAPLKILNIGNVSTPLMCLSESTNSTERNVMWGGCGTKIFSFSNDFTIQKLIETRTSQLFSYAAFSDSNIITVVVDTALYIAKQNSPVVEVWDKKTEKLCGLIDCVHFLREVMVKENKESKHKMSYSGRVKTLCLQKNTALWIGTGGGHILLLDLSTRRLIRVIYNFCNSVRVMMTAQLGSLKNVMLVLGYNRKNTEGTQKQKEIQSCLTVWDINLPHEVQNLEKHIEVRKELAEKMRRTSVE
Excerpt: as §1, §2

[8] = target: PDGFRB (Homo sapiens, UniProt P09619); assay: Eurofins kinase enzymatic radiometric assay; type: biochemical; set-up: purchased Eurofins; conditions: Km of ATP, 9-point curve in duplicate
PDGFRB, sequence (P09619 33-1106): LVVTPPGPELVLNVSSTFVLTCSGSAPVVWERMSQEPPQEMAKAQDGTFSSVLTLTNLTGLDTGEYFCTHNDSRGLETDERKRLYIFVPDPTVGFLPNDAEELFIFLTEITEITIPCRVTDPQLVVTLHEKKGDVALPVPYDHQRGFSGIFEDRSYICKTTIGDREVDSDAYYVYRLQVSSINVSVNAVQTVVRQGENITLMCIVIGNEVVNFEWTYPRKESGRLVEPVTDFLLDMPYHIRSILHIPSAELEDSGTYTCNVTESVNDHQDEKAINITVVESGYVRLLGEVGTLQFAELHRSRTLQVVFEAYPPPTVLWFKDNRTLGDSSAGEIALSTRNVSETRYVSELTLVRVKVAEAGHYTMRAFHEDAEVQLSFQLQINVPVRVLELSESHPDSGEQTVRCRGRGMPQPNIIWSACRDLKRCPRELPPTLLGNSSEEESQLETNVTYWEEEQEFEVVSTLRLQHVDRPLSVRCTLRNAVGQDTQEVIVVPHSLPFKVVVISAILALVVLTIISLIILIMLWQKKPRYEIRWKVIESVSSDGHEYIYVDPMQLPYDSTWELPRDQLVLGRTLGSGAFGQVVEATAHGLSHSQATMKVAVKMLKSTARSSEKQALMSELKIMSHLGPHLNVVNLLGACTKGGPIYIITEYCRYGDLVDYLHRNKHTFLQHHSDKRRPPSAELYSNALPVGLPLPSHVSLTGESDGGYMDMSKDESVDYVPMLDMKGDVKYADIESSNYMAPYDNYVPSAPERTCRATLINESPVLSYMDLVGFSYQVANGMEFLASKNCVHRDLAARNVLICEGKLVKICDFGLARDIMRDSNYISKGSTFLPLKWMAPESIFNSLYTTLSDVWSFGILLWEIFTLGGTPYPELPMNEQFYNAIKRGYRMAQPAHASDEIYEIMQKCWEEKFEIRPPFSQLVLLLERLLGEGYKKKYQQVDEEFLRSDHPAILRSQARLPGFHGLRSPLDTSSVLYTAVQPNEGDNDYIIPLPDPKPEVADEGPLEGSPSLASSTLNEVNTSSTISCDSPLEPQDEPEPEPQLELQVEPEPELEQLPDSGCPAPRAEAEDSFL
Excerpt: as §1, §2

[9] = target: MAP3K9/MLK1 (Homo sapiens, UniProt P80192); assay: Eurofins kinase enzymatic radiometric assay; type: biochemical; set-up: purchased Eurofins; conditions: Km of ATP, 9-point curve in duplicate
Excerpt: as §1, §2

[10] = target: NUAK1/ARK5 (Homo sapiens, UniProt O60285); assay: Eurofins kinase enzymatic radiometric assay; type: biochemical; set-up: purchased Eurofins; conditions: Km of ATP, 9-point curve in duplicate
Excerpt: as §1, §2

[11] = target: DCLK3/DCAMKL3 (Homo sapiens, UniProt Q9C098); assay: Eurofins kinase enzymatic radiometric assay; type: biochemical; set-up: purchased Eurofins; conditions: Km of ATP, 9-point curve in duplicate
Excerpt: as §1, §2

[12] = target: PDGFRA (Homo sapiens, UniProt P16234); assay: Eurofins kinase enzymatic radiometric assay; type: biochemical; set-up: purchased Eurofins; conditions: Km of ATP, 9-point curve in duplicate
Excerpt: as §1, §2

[13] = target: MAP4K4/HGK (Homo sapiens, UniProt O95819); assay: Eurofins kinase enzymatic radiometric assay; type: biochemical; set-up: purchased Eurofins; conditions: Km of ATP, 9-point curve in duplicate
Excerpt: as §1, §2

[14] = target: TNIK (Homo sapiens, UniProt Q9UKE5); assay: Eurofins kinase enzymatic radiometric assay; type: biochemical; set-up: purchased Eurofins; conditions: Km of ATP, 9-point curve in duplicate
Excerpt: as §1, §2

[15] = target: RPS6KA6/RSK4 (Homo sapiens, UniProt Q9UK32); assay: Eurofins kinase enzymatic radiometric assay; type: biochemical; set-up: purchased Eurofins; conditions: Km of ATP, 9-point curve in duplicate
RPS6KA6/RSK4, sequence (Q9UK32 whole entry): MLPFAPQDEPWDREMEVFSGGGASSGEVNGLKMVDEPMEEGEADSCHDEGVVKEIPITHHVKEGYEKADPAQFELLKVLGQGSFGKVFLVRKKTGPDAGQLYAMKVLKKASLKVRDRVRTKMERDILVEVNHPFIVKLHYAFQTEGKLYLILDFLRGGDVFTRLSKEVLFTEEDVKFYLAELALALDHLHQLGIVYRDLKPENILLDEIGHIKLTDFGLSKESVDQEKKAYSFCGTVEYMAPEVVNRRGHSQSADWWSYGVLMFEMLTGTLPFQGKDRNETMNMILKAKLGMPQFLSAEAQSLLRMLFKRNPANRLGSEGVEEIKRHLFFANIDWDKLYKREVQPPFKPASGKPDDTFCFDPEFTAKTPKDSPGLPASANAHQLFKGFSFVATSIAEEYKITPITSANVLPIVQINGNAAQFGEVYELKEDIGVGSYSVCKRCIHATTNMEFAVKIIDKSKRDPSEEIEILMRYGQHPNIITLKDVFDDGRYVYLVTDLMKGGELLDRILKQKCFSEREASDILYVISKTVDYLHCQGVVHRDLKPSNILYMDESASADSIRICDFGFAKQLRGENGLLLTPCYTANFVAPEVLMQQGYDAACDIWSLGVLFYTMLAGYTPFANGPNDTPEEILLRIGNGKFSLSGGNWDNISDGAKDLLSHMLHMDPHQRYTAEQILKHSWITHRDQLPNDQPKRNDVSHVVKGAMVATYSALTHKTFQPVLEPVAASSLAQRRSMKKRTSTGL
Excerpt: as §1, §2

[16] = target: CHEK2 (Homo sapiens, UniProt O96017); assay: Eurofins kinase enzymatic radiometric assay; type: biochemical; set-up: purchased Eurofins; conditions: Km of ATP, 9-point curve in duplicate
Excerpt: as §1, §2

[17] = target: T2, BRSK2 (Homo sapiens, UniProt Q8IWQ3); assay: Eurofins kinase enzymatic radiometric assay; type: biochemical; set-up: purchased Eurofins; conditions: Km of ATP, 9-point curve in duplicate
T2 sequence (Q8IWQ3 1-736): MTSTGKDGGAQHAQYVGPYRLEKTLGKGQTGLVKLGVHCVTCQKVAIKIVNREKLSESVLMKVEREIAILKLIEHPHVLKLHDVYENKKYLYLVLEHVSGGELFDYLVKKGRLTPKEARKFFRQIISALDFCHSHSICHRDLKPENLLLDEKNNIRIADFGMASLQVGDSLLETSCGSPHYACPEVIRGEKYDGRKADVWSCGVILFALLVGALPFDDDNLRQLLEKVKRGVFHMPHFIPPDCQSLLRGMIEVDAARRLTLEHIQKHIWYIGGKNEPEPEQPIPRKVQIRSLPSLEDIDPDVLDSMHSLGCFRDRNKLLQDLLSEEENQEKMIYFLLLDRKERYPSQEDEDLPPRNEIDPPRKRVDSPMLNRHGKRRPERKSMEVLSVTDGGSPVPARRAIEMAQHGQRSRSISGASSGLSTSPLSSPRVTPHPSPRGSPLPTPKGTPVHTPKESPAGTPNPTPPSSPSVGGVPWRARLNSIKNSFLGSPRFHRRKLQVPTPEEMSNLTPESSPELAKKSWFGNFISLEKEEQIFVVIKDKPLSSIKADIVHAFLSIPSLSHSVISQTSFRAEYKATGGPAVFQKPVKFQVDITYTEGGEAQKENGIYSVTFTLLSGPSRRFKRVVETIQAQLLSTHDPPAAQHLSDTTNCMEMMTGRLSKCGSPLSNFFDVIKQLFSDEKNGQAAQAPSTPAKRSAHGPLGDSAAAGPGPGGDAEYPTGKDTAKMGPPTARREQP
Excerpt: as §1, §2

[18] = target: PLK4 (Homo sapiens, UniProt O00444); assay: Eurofins kinase enzymatic radiometric assay; type: biochemical; set-up: purchased Eurofins; conditions: Km of ATP, 9-point curve in duplicate
Excerpt: as §1, §2

[19] = test system: RSK3; set-up: method as in earlier work; conditions: cited from earlier work
[20] = target: PIM2 (Homo sapiens, UniProt Q9P1W9); set-up: purchased Eurofins DiscoverX Corporation; method as in earlier work; conditions: cited from earlier work
PIM2, sequence (Q9P1W9 whole entry): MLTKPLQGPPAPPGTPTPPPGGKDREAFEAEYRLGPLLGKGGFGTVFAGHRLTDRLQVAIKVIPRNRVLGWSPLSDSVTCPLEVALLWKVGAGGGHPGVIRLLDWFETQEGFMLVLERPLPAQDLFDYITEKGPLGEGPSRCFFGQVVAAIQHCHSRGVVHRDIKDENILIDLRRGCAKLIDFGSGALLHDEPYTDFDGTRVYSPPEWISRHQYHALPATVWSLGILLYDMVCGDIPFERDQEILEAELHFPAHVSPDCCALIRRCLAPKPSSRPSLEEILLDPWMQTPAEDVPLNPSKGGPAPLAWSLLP

SMILES: COc1ccc2[nH]c3c4[nH]c5ccc(OC)cc5c4c4c(c3c2c1)C(=O)NC4=O [GW296115]
- IC50 [1]: 11 nM
- TSA ΔTm at 10 μM (°C) [2]: 10.6 °C
- IC50 [3]: 110 nM
- IC50 [4]: > 10000 nM
- IC50 [5]: > 10000 nM
- IC50 [6]: 100 nM
- IC50 [7]: 25 nM
- IC50 [8]: > 10000 nM
- IC50 [9]: 26 nM
- IC50 [10]: 15 nM
- IC50 [11]: 89 nM
- IC50 [12]: 710 nM
- IC50 [13]: 29 nM
- IC50 [14]: 10 nM
- IC50 [15]: 12 nM
- IC50 [16]: 2.6 nM
- IC50 [17]: 8.4 nM
- IC50 [18]: 17 nM
- Nanosyn % Inhibition at 1 μM [19]: 92%
- Nanosyn % Inhibition at 1 μM [20]: 68%
